The test system of one data set is Panc1 (pancreas). In words: MTT cytotoxicity test, Panc1. The class given is cell-based. A general note: Tetrazolium assays rely on reduction of a dye to a coloured formazan, in cell work by metabolically active cells.
For a further data set, the system named is BxPC3 (pancreas). In words: MTT cytotoxicity test, BxPC3. The format is cell-based.
The test system of another data set is U373MG (astrocyte). In words: MTT cytotoxicity test, U373MG. The class given is cell-based.
The next data set relates to T47D (breast). The data set is described as follows: MTT cytotoxicity test, T47D. The class given is cell-based.
The test system of a further data set is Colo205 (colon). The data set is described as follows: MTT cytotoxicity test, Colo205. The class given is cell-based.
In data set [1] the test system is T47D, Colo205, Panc1, BxPC3, U373MG, SK-0V3. The data set is described as follows: MTT cytotoxicity test, activity compared to native chelidonine across the cell lines. Conditions: for activity compared to native chelidonine: overall, times higher than native chelidonine; for activity compared to native chelidonine, range: range of times higher than native chelidonine. The format is cell-based.

Values after ≈ are worked out from the molar mass of the structure shown.

The term IC50 denotes the concentration at which inhibition is half-maximal. The low end stands for inhibition by little substance, the high end for a need for much substance.

`CN1Cc2c(ccc3c2OCO3)C2C(OC(=O)OC(Cl)(Cl)Cl)Cc3cc4c(cc3C21)OCO4` (centres unmarked) [Chelidoninyl trichloromethyl carbonate, Chelidoninyl Trichloromethyl Carbonate]: the “IC50, MTT cytotoxicity test” value was 0.25 µg/mL (≈ 0.486 µM) with Panc1 (pancreas); above 8 µg/mL with BxPC3 (pancreas); above 8 µg/mL in the data set on U373MG (astrocyte); 0.2 µg/mL (≈ 0.389 µM) in the data set on T47D (breast); 0.5 µg/mL (≈ 0.971 µM) in the data set with Colo205 (colon).
`CN1Cc2c(ccc3c2OCO3)[C@@H]2[C@H]1c1cc3c(cc1C[C@@H]2O)OCO3` [Chelidonine]: the IC50 was 0.25 µg/mL (≈ 0.707 µM) in the data set on Panc1 (pancreas) (Homo sapiens, PANC-1); above 8 µg/mL with BxPC3 (pancreas) (Homo sapiens, BXPC-3); above 8 µg/mL in the data set on U373MG (astrocyte) (Homo sapiens, U373 MG); 0.2 µg/mL (≈ 0.566 µM) with T47D (breast) (Homo sapiens); 0.37 µg/mL (≈ 1.05 µM) in the data set with Colo205 (colon) (Homo sapiens, COLO 205).
With “Chelidoninyl Trifluoroacetate [Chelidonine trifluoroacetate]”, in data set [1], the “activity compared to native chelidonine” value was 5 times. Also, the “activity compared to native chelidonine, range” value in data set [1] is given as 4-10 times. The “IC50, MTT cytotoxicity test” value with SK-0V3 (ovarian) is 0.06 µg/mL; with Panc1 (pancreas), 0.06 µg/mL; in the data set on BxPC3 (pancreas), 0.03 µg/mL; in the data set on U373MG (astrocyte), above 4 µg/mL; in the data set on T47D (breast), 0.02 µg/mL; in the data set on Colo205 (colon) it was 0.045 µg/mL.
As to `COC(=O)CCC(=O)O[C@H]1Cc2cc3c(cc2[C@@H]2[C@H]1c1ccc4c(c1CN2C)OCO4)OCO3` [Chelidoninyl methyl succinate, Succinic Acid Chelidoninyl Methyl ester], the “activity compared to native chelidonine” value in data set [1] is recorded as “approximately 30 times”. Also, the “activity compared to native chelidonine, range” value in data set [1] is reported as 50-150 times. Further, the “IC50, MTT cytotoxicity test” value was 0.0035 µg/mL with SK-0V3 (ovarian); 0.005 µg/mL in the data set on Panc1 (pancreas); below 0.0035 µg/mL with BxPC3 (pancreas); 4 µg/mL in the data set with U373MG (astrocyte); 0.02 µg/mL in the data set on T47D (breast); 0.0035 µg/mL with Colo205 (colon).
